Ends that are not written are not given here. * marks the point of attachment. For = O=C*
Legend:
[1] = Gel filtration of LPS, BacSp222 and complexes; assay type: physicochemical
Method: Gel filtration was conducted on a Superdex 200 Increase 10/300 GL (Cytiva, Marlborough, MA, USA) column using an UltiMate 3000 HPLC apparatus (Thermo, Waltham, MA, USA). The separations were performed at room temperature in 50 mM NH4COOH pH 5.8 at a flow rate of 0.6 mL/min. The spectrophotometric detection was conducted at 215 and 280 nm, and before separations, the column was calibrated using tryptophan (204 Da), […] (75 kDa), aldolase (158 kDa), ferritin (440 kDa), and Blue Dextran 2000 (2 MDa). The following samples were separated: (1) 375 μg of LPS O55:B5 (IEC), (2) 375 μg of LPS O111:B4 (PE), (3) 75 μg of BacSp222, (4) 375 μg of LPS O55:B5 (IEC) + 75 μg BacSp222, and (5) 375 μg of LPS O111:B4 (PE) + 75 μg BacSp222. All above solutions were prepared in phosphate-buffered saline (PBS) without Ca^2+ and Mg^2+ (Gibco, Paisley, UK) and were preincubated before separation for 15 min at 37 °C. The fractions containing LPS O55:B5 alone and LPS-BacSp222 complex, visible as peaks eluting at 12.5–14 min and 12.5–16 min, both marked by arrows in Figure , were manually collected, freeze-dried, and subjected to sodium dodecyl sulfate polyacrylamide gel electrophoresis (SDS-PAGE) under reducing conditions. […]

FPR1 = tested on: FPR1; design: method as in number not given; conditions: ref number not given; cited from earlier work
Gram-negative = conditions: ref number not given; cited from earlier work
Description: The present study sheds more light on the multiple biological activities of BacSp222 and further makes the image of this peptide even more complex.

[2] = tested on: proenzyme Factor C from amebocyte lysate; assay: Residual LPS activity, amebocyte lysate test (Pierce Chromogenic Endotoxin Quant Kit); assay type: biochemical; conditions: 4 μg BacSp222 preincubated with 3 pg LPS O111:B4 standard, 15 min, 37 °C, 60 μL PBS; 405 nm; mean n = 3
Method: The separate and independent assay used to determine the reduction of the LPS biological potential after incubation with BacSp222 was a test. Briefly, this approach utilizes the ability of endotoxin to activate a proenzyme Factor C from amebocyte lysate and allows for spectrophotometric measurement of the released active enzyme using a chromogenic synthetic peptide substrate. Due to high specificity and sensitivity, this assay is widely used to detect trace amounts of LPS. As presented in Figure , preincubation of LPS with a large excess of BacSp222 reduced LPS activity by ca. 50%.
The residual biological activity of LPS after preincubation with BacSp222 was evaluated by using a commercial assay kit. The reaction was performed for 4 μg of BacSp222, which was preincubated with 3 pg of LPS O111:B4 standard for 15 min at 37 °C in a final volume of 60 μL of PBS without Ca^2+ and Mg^2+. Simultaneously and independently, the same quantity of BacSp222 and LPS as above was preincubated separately as controls. After preincubation, the residual biological activity of endotoxin in all samples was determined using a spectrophotometric Pierce Chromogenic Endotoxin Quant Kit (Thermo, Waltham, MA, USA). The absorbance was measured at 405 nm using a microplate reader Synergy H1 Hybrid plate reader controlled by Gene5 version 2.00.18 software (BIOTEK Instruments, Winooski, VT, USA).

Substance: For-MAGLLRFLLSKGRALYNWAKSHVGKVWEWLKSGATYEQIKEWIENALGWR [BacSp222]
- BacSp222 peak at 36 min after incubation with LPS ([1]; 375 μg LPS + 75 μg BacSp222, 15 min, 37 °C, peptide referred to as "the bacteriocin"): disappears completely
- apparent molecular mass, gel filtration (peptide peak) ([1]; peak at 36 min, Superdex 200 Increase, 50 mM NH4COOH pH 5.8, 0.6 mL/min, 215 nm, room temperature): 5.5 kDa
- activation of FPR1 (FPR1): cannot activate
- activity against Gram-negative bacteria (Gram-negative): inactive against Gram-negative ones
- reduction of LPS activity [2]: ca. 50%
